# Key:
# Assay in all cases: Caliper, Mobility shift assay off-chip
# CDK1 (human) = CDK1 (human) (UniProt P06493)
# BTK (human) = BTK (human) (UniProt Q06187)
# PHKG2 (human) = PHKG2 (human) (UniProt P15735)
# CDK7 (human) = CDK7 (human) (UniProt P50613)
# CDC7 (human) = CDC7 (human) (UniProt O00311)
# TNIK (human) = TNIK (human) (UniProt Q9UKE5)
# CAMK2B (human) = CAMK2B (human) (UniProt Q13554)
# PRKCI (human) = PRKCI (human) (UniProt P41743)
# RET (human) = RET (human) (UniProt P07949)
# MAPK12 (human) = MAPK12 (human) (UniProt P53778)
# Chain of MAPK12 (human) (P53778 whole entry, looked up): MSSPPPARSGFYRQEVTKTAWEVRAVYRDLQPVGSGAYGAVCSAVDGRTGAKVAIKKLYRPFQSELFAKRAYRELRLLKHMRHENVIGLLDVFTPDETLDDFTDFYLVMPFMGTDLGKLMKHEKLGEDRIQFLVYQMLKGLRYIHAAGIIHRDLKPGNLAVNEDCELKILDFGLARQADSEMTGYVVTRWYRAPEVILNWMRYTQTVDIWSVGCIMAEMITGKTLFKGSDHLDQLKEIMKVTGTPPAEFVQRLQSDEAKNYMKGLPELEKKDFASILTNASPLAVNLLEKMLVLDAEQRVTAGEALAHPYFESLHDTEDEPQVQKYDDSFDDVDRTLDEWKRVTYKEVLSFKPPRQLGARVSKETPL
# KIT (human) = KIT (human) (UniProt P10721)
# Chain of KIT (human) (P10721 whole entry, looked up): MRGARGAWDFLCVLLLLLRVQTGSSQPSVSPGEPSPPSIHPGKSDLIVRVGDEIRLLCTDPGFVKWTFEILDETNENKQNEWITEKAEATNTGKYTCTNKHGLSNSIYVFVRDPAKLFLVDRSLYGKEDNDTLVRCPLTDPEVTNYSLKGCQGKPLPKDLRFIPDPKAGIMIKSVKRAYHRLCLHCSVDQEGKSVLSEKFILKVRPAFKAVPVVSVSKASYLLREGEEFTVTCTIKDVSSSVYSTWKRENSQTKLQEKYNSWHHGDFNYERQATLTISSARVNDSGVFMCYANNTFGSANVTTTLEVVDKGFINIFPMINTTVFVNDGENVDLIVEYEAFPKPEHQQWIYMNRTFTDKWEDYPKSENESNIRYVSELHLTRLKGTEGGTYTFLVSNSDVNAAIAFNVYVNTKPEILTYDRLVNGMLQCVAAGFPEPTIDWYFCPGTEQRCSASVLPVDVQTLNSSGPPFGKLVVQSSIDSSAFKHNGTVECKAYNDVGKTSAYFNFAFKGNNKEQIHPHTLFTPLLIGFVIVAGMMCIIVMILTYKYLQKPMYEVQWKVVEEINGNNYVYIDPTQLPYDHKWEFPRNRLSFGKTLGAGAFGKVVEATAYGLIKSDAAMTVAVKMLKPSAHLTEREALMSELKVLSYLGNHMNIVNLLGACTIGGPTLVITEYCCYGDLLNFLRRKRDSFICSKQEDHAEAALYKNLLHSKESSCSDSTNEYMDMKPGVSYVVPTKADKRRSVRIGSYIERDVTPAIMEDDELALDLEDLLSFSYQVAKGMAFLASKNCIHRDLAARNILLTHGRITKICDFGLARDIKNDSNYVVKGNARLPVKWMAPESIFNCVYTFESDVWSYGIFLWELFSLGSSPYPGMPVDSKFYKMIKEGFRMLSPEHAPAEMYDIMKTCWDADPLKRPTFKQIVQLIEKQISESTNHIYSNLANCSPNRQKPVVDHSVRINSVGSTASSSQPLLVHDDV
# HCK (human) = HCK (human) (UniProt P08631)
# Chain of HCK (human) (P08631 whole entry, looked up): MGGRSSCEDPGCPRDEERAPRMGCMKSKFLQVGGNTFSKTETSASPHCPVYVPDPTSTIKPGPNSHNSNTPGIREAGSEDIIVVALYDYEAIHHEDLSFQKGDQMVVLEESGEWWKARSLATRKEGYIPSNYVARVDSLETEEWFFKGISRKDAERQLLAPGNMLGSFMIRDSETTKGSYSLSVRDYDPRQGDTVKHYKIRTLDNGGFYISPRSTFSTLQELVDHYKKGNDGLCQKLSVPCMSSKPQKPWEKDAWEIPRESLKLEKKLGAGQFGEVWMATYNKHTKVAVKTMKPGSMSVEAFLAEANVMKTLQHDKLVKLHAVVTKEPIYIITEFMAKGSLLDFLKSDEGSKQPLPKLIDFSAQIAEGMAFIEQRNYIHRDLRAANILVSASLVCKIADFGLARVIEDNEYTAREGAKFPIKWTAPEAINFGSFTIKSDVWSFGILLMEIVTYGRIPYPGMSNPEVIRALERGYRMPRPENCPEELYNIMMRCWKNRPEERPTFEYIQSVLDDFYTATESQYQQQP
# FGFR2 (human) = FGFR2 (human) (UniProt P21802)
# Chain of FGFR2 (human) (P21802 whole entry, looked up): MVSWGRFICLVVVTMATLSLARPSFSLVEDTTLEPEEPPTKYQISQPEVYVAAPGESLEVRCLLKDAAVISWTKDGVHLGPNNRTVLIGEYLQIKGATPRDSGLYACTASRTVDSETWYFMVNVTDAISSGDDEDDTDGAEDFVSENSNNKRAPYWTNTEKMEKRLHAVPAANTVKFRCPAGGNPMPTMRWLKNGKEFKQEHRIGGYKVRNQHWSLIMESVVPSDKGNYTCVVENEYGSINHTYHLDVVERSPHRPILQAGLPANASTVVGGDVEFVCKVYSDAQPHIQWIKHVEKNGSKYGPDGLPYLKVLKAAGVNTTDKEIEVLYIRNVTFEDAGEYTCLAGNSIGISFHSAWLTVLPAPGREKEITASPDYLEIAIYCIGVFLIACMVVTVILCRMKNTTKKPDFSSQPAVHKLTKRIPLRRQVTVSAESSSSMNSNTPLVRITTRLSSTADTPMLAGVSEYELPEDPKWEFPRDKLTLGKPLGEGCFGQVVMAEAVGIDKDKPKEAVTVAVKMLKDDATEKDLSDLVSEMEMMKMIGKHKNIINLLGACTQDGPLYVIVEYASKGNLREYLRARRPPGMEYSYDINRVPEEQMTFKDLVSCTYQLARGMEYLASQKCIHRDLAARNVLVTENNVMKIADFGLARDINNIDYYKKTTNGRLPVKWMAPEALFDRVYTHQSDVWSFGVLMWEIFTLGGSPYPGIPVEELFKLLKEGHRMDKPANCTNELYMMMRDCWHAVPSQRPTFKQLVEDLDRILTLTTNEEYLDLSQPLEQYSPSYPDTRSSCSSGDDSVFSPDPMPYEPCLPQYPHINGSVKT
# AKT1 (human) = AKT1 (human) (UniProt P31749)
# CDK6 (human) = CDK6 (human) (UniProt Q00534)
# CSK (human) = CSK (human) (UniProt P41240)
# PTK2B (human) = PTK2B (human) (UniProt Q14289)
# TNK2 (human) = TNK2 (human) (UniProt Q07912)
# SPHK1 (human) = SPHK1 (human) (UniProt Q9NYA1)
# Chain of SPHK1 (human) (Q9NYA1 whole entry, looked up): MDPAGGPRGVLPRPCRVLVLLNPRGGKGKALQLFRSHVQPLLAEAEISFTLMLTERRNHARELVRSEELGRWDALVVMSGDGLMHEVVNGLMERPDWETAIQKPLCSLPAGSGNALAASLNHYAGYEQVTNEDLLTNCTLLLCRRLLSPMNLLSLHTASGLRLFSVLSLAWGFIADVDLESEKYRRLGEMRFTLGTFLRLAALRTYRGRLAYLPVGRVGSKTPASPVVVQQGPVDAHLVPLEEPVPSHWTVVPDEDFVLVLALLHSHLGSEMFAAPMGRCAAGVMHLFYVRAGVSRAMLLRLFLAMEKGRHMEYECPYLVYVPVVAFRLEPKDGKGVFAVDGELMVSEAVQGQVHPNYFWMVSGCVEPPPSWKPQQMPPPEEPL
# NIM1 (human) = NIM1 (human) (UniProt Q8IY84)
# PRKD2 (human) = PRKD2 (human) (UniProt Q9BZL6)
# RPS6KA2 KD1 KD2 (human) = RPS6KA2 KD1 KD2 (human) (UniProt Q15349)
# SPHK2 (human) = SPHK2 (human) (UniProt Q9NRA0)
# HIPK3 (human) = HIPK3 (human) (UniProt Q9H422)
# JAK2 JH1 JH2 (human) = JAK2 JH1 JH2 (human) (UniProt O60674)
# FGR (human) = FGR (human) (UniProt P09769)
# CSNK2A1 (human) = CSNK2A1 (human) (UniProt P68400)
# Chain of CSNK2A1 (human) (P68400 whole entry, looked up): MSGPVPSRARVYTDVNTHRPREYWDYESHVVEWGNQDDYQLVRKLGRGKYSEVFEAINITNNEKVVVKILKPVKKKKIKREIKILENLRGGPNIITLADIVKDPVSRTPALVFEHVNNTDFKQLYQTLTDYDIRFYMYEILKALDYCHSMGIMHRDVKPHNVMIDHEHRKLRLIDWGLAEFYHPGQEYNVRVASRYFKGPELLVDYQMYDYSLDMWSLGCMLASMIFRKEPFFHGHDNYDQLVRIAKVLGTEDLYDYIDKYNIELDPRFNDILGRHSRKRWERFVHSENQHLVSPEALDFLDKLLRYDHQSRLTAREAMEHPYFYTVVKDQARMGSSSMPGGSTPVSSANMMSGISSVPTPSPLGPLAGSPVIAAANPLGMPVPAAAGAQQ
# TSSK2 (human) = TSSK2 (human) (UniProt Q96PF2)
# Chain of TSSK2 (human) (Q96PF2 whole entry, looked up): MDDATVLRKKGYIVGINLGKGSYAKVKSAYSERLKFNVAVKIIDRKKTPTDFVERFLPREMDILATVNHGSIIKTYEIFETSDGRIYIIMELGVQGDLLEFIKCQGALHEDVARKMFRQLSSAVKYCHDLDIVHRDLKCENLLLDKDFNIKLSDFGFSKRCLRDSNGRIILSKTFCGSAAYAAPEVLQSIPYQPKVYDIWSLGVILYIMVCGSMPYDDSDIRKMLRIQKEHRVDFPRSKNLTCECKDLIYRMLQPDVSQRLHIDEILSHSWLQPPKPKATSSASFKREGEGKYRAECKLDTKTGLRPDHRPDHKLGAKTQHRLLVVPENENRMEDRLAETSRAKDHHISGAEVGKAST
# ALK NPM1 (human) = ALK NPM1 (human) (UniProt P06748+Q9UM73)
# ABL2 (human) = ABL2 (human) (UniProt P42684)
# RPS6KA1 KD1 KD2 (human) = RPS6KA1 KD1 KD2 (human) (UniProt Q15418)
# Chain of RPS6KA1 KD1 KD2 (human) (Q15418 whole entry, looked up): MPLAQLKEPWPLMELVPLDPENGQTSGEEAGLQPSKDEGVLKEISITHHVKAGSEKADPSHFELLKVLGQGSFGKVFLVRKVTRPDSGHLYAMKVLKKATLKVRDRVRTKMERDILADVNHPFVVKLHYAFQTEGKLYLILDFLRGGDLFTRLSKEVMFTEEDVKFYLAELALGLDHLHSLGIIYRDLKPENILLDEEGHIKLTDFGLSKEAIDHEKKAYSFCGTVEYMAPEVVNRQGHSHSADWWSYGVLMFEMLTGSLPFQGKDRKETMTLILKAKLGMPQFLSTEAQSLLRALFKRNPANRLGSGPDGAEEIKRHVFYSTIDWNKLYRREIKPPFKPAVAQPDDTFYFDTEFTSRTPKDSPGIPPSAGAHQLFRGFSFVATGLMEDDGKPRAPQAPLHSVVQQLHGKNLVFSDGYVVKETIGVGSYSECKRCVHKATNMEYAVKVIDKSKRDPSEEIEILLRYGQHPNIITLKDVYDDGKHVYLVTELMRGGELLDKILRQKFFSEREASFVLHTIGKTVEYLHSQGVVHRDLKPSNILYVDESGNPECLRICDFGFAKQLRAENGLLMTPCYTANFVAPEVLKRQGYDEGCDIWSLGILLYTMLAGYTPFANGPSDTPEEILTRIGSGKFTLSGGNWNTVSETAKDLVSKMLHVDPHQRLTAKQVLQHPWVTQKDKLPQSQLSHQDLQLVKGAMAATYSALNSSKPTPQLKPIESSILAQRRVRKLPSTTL
# DYRK1B (human) = DYRK1B (human) (UniProt Q9Y463)
# EPHA1 (human) = EPHA1 (human) (UniProt P21709)
# IKBKE (human) = IKBKE (human) (UniProt Q14164)
# Chain of PHKG2 (human) (P15735 whole entry, looked up): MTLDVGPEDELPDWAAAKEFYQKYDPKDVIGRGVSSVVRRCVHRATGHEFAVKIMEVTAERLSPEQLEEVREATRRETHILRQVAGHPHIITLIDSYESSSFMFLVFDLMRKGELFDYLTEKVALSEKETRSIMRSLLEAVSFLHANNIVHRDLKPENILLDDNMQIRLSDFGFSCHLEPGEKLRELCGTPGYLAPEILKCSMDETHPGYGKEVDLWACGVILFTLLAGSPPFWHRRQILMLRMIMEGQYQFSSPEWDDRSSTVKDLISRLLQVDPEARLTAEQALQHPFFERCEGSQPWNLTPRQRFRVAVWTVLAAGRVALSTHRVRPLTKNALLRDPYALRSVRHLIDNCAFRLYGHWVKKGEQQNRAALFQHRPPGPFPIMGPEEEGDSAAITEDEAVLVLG
structure (smiles),measurement,setting,value
COc1cc2c(Oc3ccc4[nH]c(C)cc4c3F)ncnc2cc1OCCCN1CCCC1,inhibition,CDK1 (human); compound 0.02 µM,-0.7%
same,inhibition,CDK1 (human); compound 0.2 µM,-3.2%
same,inhibition,BTK (human); compound 0.02 µM,3.4%
same,inhibition,BTK (human); compound 0.2 µM,10.1%
same,inhibition,PHKG2 (human); compound 0.02 µM,-2.9%
same,inhibition,PHKG2 (human); compound 0.2 µM,-3.3%
same,inhibition,CDK7 (human); compound 0.02 µM,-5.4%
same,inhibition,CDK7 (human); compound 0.2 µM,-4.5%
same,inhibition,CDC7 (human); compound 0.02 µM,-3.4%
same,inhibition,CDC7 (human); compound 0.2 µM,-0.7%
same,inhibition,TNIK (human); compound 0.02 µM,-0.5%
same,inhibition,TNIK (human); compound 0.2 µM,24.9%
same,inhibition,CAMK2B (human); compound 0.02 µM,-4.3%
same,inhibition,CAMK2B (human); compound 0.2 µM,-6%
same,inhibition,PRKCI (human); compound 0.02 µM,4.3%
same,inhibition,PRKCI (human); compound 0.2 µM,6%
same,inhibition,RET (human); compound 0.02 µM,76.8%
same,inhibition,RET (human); compound 0.2 µM,98.7%
same,inhibition,MAPK12 (human); compound 0.02 µM,-4.8%
same,inhibition,MAPK12 (human); compound 0.2 µM,-0.1%
same,inhibition,KIT (human); compound 0.02 µM,64.1%
same,inhibition,KIT (human); compound 0.2 µM,71.4%
same,inhibition,HCK (human); compound 0.02 µM,0.4%
same,inhibition,HCK (human); compound 0.2 µM,21.1%
same,inhibition,FGFR2 (human); compound 0.02 µM,71.8%
same,inhibition,FGFR2 (human); compound 0.2 µM,98.3%
same,inhibition,AKT1 (human); compound 0.02 µM,-0.8%
same,inhibition,AKT1 (human); compound 0.2 µM,-3.1%
same,inhibition,CDK6 (human); compound 0.02 µM,11.4%
same,inhibition,CDK6 (human); compound 0.2 µM,4.1%
same,inhibition,CSK (human); compound 0.02 µM,-6.7%
same,inhibition,CSK (human); compound 0.2 µM,-6.3%
same,inhibition,PTK2B (human); compound 0.02 µM,-1.9%
same,inhibition,PTK2B (human); compound 0.2 µM,-5.4%
same,inhibition,TNK2 (human); compound 0.02 µM,-6.7%
same,inhibition,TNK2 (human); compound 0.2 µM,-5.4%
same,inhibition,SPHK1 (human); compound 0.02 µM,-5.6%
same,inhibition,SPHK1 (human); compound 0.2 µM,-7.8%
same,inhibition,NIM1 (human); compound 0.02 µM,15.8%
same,inhibition,NIM1 (human); compound 0.2 µM,-9.8%
same,inhibition,PRKD2 (human); compound 0.02 µM,-0.3%
same,inhibition,PRKD2 (human); compound 0.2 µM,-1.5%
same,inhibition,RPS6KA2 KD1 KD2 (human); compound 0.02 µM,3.9%
same,inhibition,RPS6KA2 KD1 KD2 (human); compound 0.2 µM,2.2%
same,inhibition,SPHK2 (human); compound 0.02 µM,6.4%
same,inhibition,SPHK2 (human); compound 0.2 µM,2.8%
same,inhibition,HIPK3 (human); compound 0.02 µM,-6.3%
same,inhibition,HIPK3 (human); compound 0.2 µM,0.5%
same,inhibition,JAK2 JH1 JH2 (human); compound 0.02 µM,4.5%
same,inhibition,JAK2 JH1 JH2 (human); compound 0.2 µM,4.5%
same,inhibition,FGR (human); compound 0.02 µM,12.6%
same,inhibition,FGR (human); compound 0.2 µM,27.6%
same,inhibition,CSNK2A1 (human); compound 0.02 µM,-0.1%
same,inhibition,CSNK2A1 (human); compound 0.2 µM,-0.5%
same,inhibition,TSSK2 (human); compound 0.02 µM,-4.1%
same,inhibition,TSSK2 (human); compound 0.2 µM,-3.4%
same,inhibition,ALK NPM1 (human); compound 0.02 µM,3.6%
same,inhibition,ALK NPM1 (human); compound 0.2 µM,5.1%
same,inhibition,ABL2 (human); compound 0.02 µM,5.6%
same,inhibition,ABL2 (human); compound 0.2 µM,34.5%
same,inhibition,RPS6KA1 KD1 KD2 (human); compound 0.02 µM,-3.4%
same,inhibition,RPS6KA1 KD1 KD2 (human); compound 0.2 µM,-3.3%
same,inhibition,DYRK1B (human); compound 0.02 µM,6.7%
same,inhibition,DYRK1B (human); compound 0.2 µM,-1.1%
same,inhibition,EPHA1 (human); compound 0.02 µM,-0.2%
same,inhibition,EPHA1 (human); compound 0.2 µM,6.5%
same,inhibition,IKBKE (human); compound 0.02 µM,-6.2%
same,inhibition,IKBKE (human); compound 0.2 µM,-5.1%
